Test results as given in patent US4348393A, “N-Aryl oxazolidinones, oxazolidinethiones, pyrrolidinones, pyrrolidines and thiazolidinones” (Delalande S.A., priority 1978, dated 1982).

Assays:
[1] = test system: generalized trembling caused by dl-5-hydroxytryptophane; test: Test A: potentiation in mice of generalized trembling caused by dl-5-hydroxytryptophane; format: in vivo; settings: po, mice, potentiation of trembling by dl-5-hydroxytryptophane 200 mg/kg interperitoneal; for ED50: Mus musculus, read-out: Test A ED 50
Method: Test A: Potentiation in mice of generalized trembling caused by an interperitoneal injection (200 mg/kg) of dl-5-hydroxytryptophane, following the protocol described by C. GOURET and G. RAYNAUD in J. Pharmacol. (Paris), (1974), 5, 231.

[2] = test system: ptosis observed one hour after reserpine; test: Test B: antagonism of reserpine-induced ptosis in mice; format: in vivo; settings: Mus musculus, 1 h, po, antagonism of ptosis one hour after reserpine 2 mg/kg intravenous, read-out: Test B ED 50
Method: Test B: Antagonism with respect to the ptosis observed one hour after an intravenous injection (2 mg/kg) of reserpine given to mice, following the protocol described by C.

Compound	ED50 [1]	ED50 [2]	Test A ED 50 [1]
CC(C)C(=O)OCC1CN(c2ccc(OCCC#N)cc2)C(=O)O1 (centres unmarked) [compound 5]	4.7 mg/kg	9.5 mg/kg	–
CCCCOc1ccc(N2CC(COCCC)OC2=O)cc1 (centres unmarked) [compound 142]	18 mg/kg	17.5 mg/kg	–
CCOCC1CN(c2ccc(OCc3ccccc3)cc2)C(=O)O1 (centres unmarked) [compound 154]	19 mg/kg	17.5 mg/kg	–
COCC1CN(c2ccc(/C=C\c3cccc([N+](=O)[O-])c3)cc2)C(=O)O1 (centres unmarked) [compound 194]	6.4 mg/kg	5.8 mg/kg	–
COCC1CN(c2ccc(OCCC(C)C)cc2)C(=O)O1 (centres unmarked) [compound 111]	0.28 mg/kg	–	–
OCC1CN(c2ccc(OCC3CCCCC3)cc2)C(=S)O1 (centres unmarked) [compound 90]	3 mg/kg	8 mg/kg	–
CCCCOc1ccc(N2CC(COC(=O)C(C)(C)C)OC2=O)cc1 (centres unmarked) [compound 12]	4.6 mg/kg	6 mg/kg	–
N#CCCOc1ccc(N2CC(COC3CCCCC3)OC2=O)cc1 (centres unmarked) [compound 54]	14 mg/kg	12.5 mg/kg	–
CCCOCC1CN(c2ccc(OCc3cccc([N+](=O)[O-])c3)cc2)C(=O)O1 (centres unmarked) [compound 70]	0.8 mg/kg	0.6 mg/kg	–
O=C1OC(COC2CCCCC2)CN1c1ccc(OCc2cccc([N+](=O)[O-])c2)cc1 (centres unmarked) [compound 63]	9.4 mg/kg	16.5 mg/kg	–
COCC1CN(c2ccc(OCc3ccc(F)cc3)cc2)C(=O)O1 (centres unmarked) [compound 64]	–	4.5 mg/kg	–
CCCCC(=O)OCC1CN(c2ccc(OCC3CCCC3)cc2)C(=O)O1 (centres unmarked) [compound 16]	1.7 mg/kg	1.5 mg/kg	–
CC(C)OCC1CN(c2ccc(OCc3ccccc3)cc2)C(=O)O1 (centres unmarked) [compound 58]	50 mg/kg	8.8 mg/kg	–
CCCCC(=O)OCC1CN(c2ccc(OCc3cccc(Cl)c3)cc2)C(=O)O1 (centres unmarked) [compound 33]	9.4 mg/kg	4.5 mg/kg	–
C#CCOCC1CN(c2ccc(OCc3cccc([N+](=O)[O-])c3)cc2)C(=O)O1 (centres unmarked) [compound 72]	0.8 mg/kg	1 mg/kg	–
NCC1CN(c2ccc(OCC3CCCCC3)cc2)C(=O)O1 (centres unmarked) [compound 172]	–	8.6 mg/kg	–
COCC1CN(c2ccc(OCc3ccc([N+](=O)[O-])cc3)cc2)C(=O)O1 (centres unmarked) [compound 165]	6.8 mg/kg	4.7 mg/kg	–
CC(C)CCOc1ccc(N2CC(CN)OC2=O)cc1 (centres unmarked) [compound 174]	3 mg/kg	3.5 mg/kg	–
CCCCCCCCC(=O)OCC1CN(c2ccc(OCc3ccccc3)cc2)C(=O)O1 (centres unmarked) [compound 28]	32 mg/kg	20 mg/kg	–
CCCCCCCCC(=O)OCC1CN(c2ccc(OCc3cccc(C#N)c3)cc2)C(=O)O1 (centres unmarked) [compound 133]	6 mg/kg	5.2 mg/kg	–
N#Cc1cccc(COc2ccc(N3CC(CO)OC3=S)cc2)c1 (centres unmarked) [compound 97]	3.9 mg/kg	3.2 mg/kg	–
OCC1CN(c2ccc(OCC3CCCC3)cc2)C(=S)O1 (centres unmarked) [compound 100]	6.2 mg/kg	–	–
CC(=O)OCC1CN(c2ccc(OCc3cccc([N+](=O)[O-])c3)cc2)C(=O)O1 (centres unmarked) [compound 36, Para (meta-nitrobenzyloxy) phenyl-3 acetoxy-methyl-5 oxazolidinone-2]	1.7 mg/kg	1.5 mg/kg	–
COCC1CN(c2ccc(OCC3CCOCC3)cc2)C(=O)O1 (centres unmarked) [compound 144]	2.2 mg/kg	1.1 mg/kg	–
O=C(OCC1CN(c2ccc(OCc3ccccc3)cc2)C(=O)O1)c1ccccc1 (centres unmarked) [compound 29]	45 mg/kg	50 mg/kg	–
COCC1CN(c2ccc(OCc3cccc(C#N)c3)cc2)C(=O)O1 (centres unmarked) [compound 65]	0.28 mg/kg	0.75 mg/kg	–

Compound	ED50 [1]	ED50 [2]	Test A ED 50 [1]
O=[N+]([O-])c1cc(Cl)cc(COc2ccc(N3CC(CO)OC3=S)cc2)c1 (centres unmarked) [compound 113]	3.2 mg/kg	3.5 mg/kg	–
CCCOCC1CN(c2ccc(OCc3cccc(Cl)c3)cc2)C(=O)O1 (centres unmarked) [compound 153]	3.8 mg/kg	4 mg/kg	–
CCCOc1ccc(N2CC(CO)OC2=S)cc1 (centres unmarked) [compound 88]	12.5 mg/kg	33 mg/kg	–
CC(C)(C)C(=O)OCC1CN(c2ccc(OCc3cccc(Cl)c3)cc2)C(=O)O1 (centres unmarked) [compound 34]	7 mg/kg	7.5 mg/kg	–
CC(C)OCC1CN(c2ccc(OCc3cccc(Cl)c3)cc2)C(=O)O1 (centres unmarked) [compound 60]	30 mg/kg	–	–
CC(C)C(=O)OCC1CN(c2ccc(OCc3ccccc3)cc2)C(=O)O1 (centres unmarked) [compound 25]	15 mg/kg	25 mg/kg	–
CCOCC1CN(c2ccc(OCc3cccc([N+](=O)[O-])c3)cc2)C(=O)O1 (centres unmarked) [compound 69]	0.5 mg/kg	0.2 mg/kg	–
CCCCC(=O)OCC1CN(c2ccc(OCCC#N)cc2)C(=O)O1 (centres unmarked) [compound 6]	2.4 mg/kg	6 mg/kg	–
CCC(=O)OCC1CN(c2ccc(OCc3cccc(F)c3)cc2)C(=O)O1 (centres unmarked) [compound 44]	6.2 mg/kg	–	–
CNCC1CN(c2ccc(OCc3cccc(Cl)c3)cc2)C(=O)O1 (centres unmarked) [compound 83]	12.5 mg/kg	6.2 mg/kg	–
COCC1CN(c2ccc(OCc3ccc(C#N)cc3)cc2)C(=O)O1 (centres unmarked) [compound 159]	5.2 mg/kg	4.8 mg/kg	–
COCC1CN(c2ccc(OCC3=CCCCC3)cc2)C(=O)O1 (centres unmarked) [compound 56]	–	3 mg/kg	–
CCCCOc1ccc(N2CC(COC3CCCCC3)OC2=O)cc1 (centres unmarked) [compound 48]	50 mg/kg	50 mg/kg	–
O=C(OCC1CN(c2ccc(OCC3CCCC3)cc2)C(=O)O1)C1CCCCC1 (centres unmarked) [compound 18]	4 mg/kg	4.25 mg/kg	–
CC(C)(C)C(=O)OCC1CN(c2ccc(OCC3CCCC3)cc2)C(=O)O1 (centres unmarked) [compound 17]	4.8 mg/kg	3.6 mg/kg	–
COCC1CN(c2ccc(OCc3ccc(Cl)cc3)cc2)C(=O)O1 (centres unmarked) [compound 68]	5 mg/kg	6.2 mg/kg	–
CCOCC1CN(c2ccc(OCC3CCCC3)cc2)C(=O)O1 (centres unmarked) [compound 146]	5 mg/kg	12.5 mg/kg	–
COCC1CN(c2ccc(OCC(C)=O)cc2)C(=O)O1 (centres unmarked) [compound 151]	5.2 mg/kg	5 mg/kg	–
CC(=O)OCC1CN(c2ccc(OCC#N)cc2)C(=O)O1 (centres unmarked) [compound 1]	12.5 mg/kg	6.2 mg/kg	–
CCC(=O)OCC1CN(c2ccc(OCC3CCCC3)cc2)C(=O)O1 (centres unmarked) [compound 14]	2 mg/kg	3.1 mg/kg	–
COCC1CN(c2ccc(OCc3cccc(F)c3)cc2)C(=O)O1 (centres unmarked) [compound 67]	4.4 mg/kg	5.6 mg/kg	–
CC(C)C(=O)OCC1CN(c2ccc(OCc3cccc([N+](=O)[O-])c3)cc2)C(=O)O1 (centres unmarked) [compound 38]	1.5 mg/kg	2 mg/kg	–
CCCCOc1ccc(N2CC(COC)OC2=O)cc1 (centres unmarked) [compound 46]	1.5 mg/kg	2 mg/kg	–
CCCCC(=O)OCC1CN(c2ccc(OCc3cccc([N+](=O)[O-])c3)cc2)C(=O)O1 (centres unmarked) [compound 39]	1.75 mg/kg	1.6 mg/kg	–
N#CCOc1ccc(N2CC(CO)OC2=S)cc1 (centres unmarked) [compound 92]	30 mg/kg	50 mg/kg	–
CCCCC(=O)OCC1CN(c2ccc(OCCC(C)C)cc2)C(=O)O1 (centres unmarked) [compound 128]	7.2 mg/kg	4.8 mg/kg	–

Compound	ED50 [1]	ED50 [2]	Test A ED 50 [1]
CC(=O)OCC1CN(c2ccc(OCc3cccc(C#N)c3)cc2)C(=S)O1 (centres unmarked) [compound 120]	–	3 mg/kg	–
COCC1CN(c2ccc(OCCCC#N)cc2)C(=O)O1 (centres unmarked) [compound 110]	0.3 mg/kg	–	–
CC(C)CC(=O)OCC1CN(c2ccc(OCc3cccc([N+](=O)[O-])c3)cc2)C(=O)O1 (centres unmarked) [compound 134]	–	3.9 mg/kg	–
CCCCCCCCC(=O)OCC1CN(c2ccc(OCCC#N)cc2)C(=O)O1 (centres unmarked) [compound 9]	–	25 mg/kg	–
CCC(=O)OCC1CN(c2ccc(OCc3cc(Cl)cc([N+](=O)[O-])c3)cc2)C(=O)O1 (centres unmarked) [compound 137]	–	6 mg/kg	–
CCCCCCOc1ccc(N2CC(COC)OC2=O)cc1 (centres unmarked) [compound 149]	6 mg/kg	–	–
CCC(=O)OCC1CN(c2ccc(OCCC(C)C)cc2)C(=O)O1 (centres unmarked) [compound 124]	–	0.6 mg/kg	–
OCC1CN(c2ccc(OCC3=CCCCC3)cc2)C(=S)O1 (centres unmarked) [compound 101]	18 mg/kg	–	–
CCC(=O)OCC1CN(c2ccc(OCC3CCCCC3)cc2)C(=O)O1 (centres unmarked) [compound 22]	–	3 mg/kg	–
CCCCC(=O)OCC1CN(c2ccc(OCC3CCCCC3)cc2)C(=O)O1 (centres unmarked) [compound 104]	6.2 mg/kg	–	–
CCCCOc1ccc(N2CC(CN(C)C)OC2=O)cc1 (centres unmarked) [compound 75]	8 mg/kg	–	–
CN(C)CC1CN(c2ccc(OCC3CCCC3)cc2)C(=O)O1 (centres unmarked) [compound 78]	6.2 mg/kg	–	–
CCCOCC1CN(c2ccc(OCc3cccc(C#N)c3)cc2)C(=O)O1 (centres unmarked) [compound 160]	–	4.2 mg/kg	–
CC(C)(C)C(=O)OCC1CN(c2ccc(OCC3CCCCC3)cc2)C(=O)O1 (centres unmarked) [compound 105]	6.2 mg/kg	–	–
CNCC1CN(c2ccc(OCC3CCCCC3)cc2)C(=O)O1 (centres unmarked) [compound 173]	–	4.7 mg/kg	–
CCCCC(=O)OCC1CN(c2ccc(OCc3cccc(F)c3)cc2)C(=O)O1 (centres unmarked) [compound 108]	5.6 mg/kg	–	–
CCCCCOc1ccc(N2CC(COC)OC2=O)cc1 (centres unmarked) [compound 148]	2.2 mg/kg	–	–
CCCCCCCCC(=O)OCC1CN(c2ccc(OCc3ccc(F)cc3)cc2)C(=O)O1 (centres unmarked) [compound 136]	–	31 mg/kg	–
N#CCCOc1ccc(N2CC(CO)OC2=S)cc1 (centres unmarked) [compound 102]	6.2 mg/kg	–	–
CCCCCCCCC(=O)OCC1CN(c2ccc(OCc3cc(Cl)cc([N+](=O)[O-])c3)cc2)C(=O)O1 (centres unmarked) [compound 138]	–	6 mg/kg	–
CC(C)(C)C(=O)OCC1CN(c2ccc(OCCC#N)cc2)C(=O)O1 (centres unmarked) [compound 7]	–	7.4 mg/kg	–
CC(C)C(=O)OCC1CN(c2ccc(OCc3cccc(F)c3)cc2)C(=O)O1 (centres unmarked) [compound 107]	–	12 mg/kg	–
CCC(=O)OCC1CN(c2ccc(OCc3cccc(F)c3)cc2)C(=O)O1 (centres unmarked) [compound 106]	–	–	6.2 mg/kg
OCC1CN(c2ccc(OCC3CCOCC3)cc2)C(=S)O1 (centres unmarked) [compound 119]	–	8 mg/kg	–
CCC(=O)OCC1CN(c2ccc(OCc3ccc(F)cc3)cc2)C(=O)O1 (centres unmarked) [compound 135]	–	4.2 mg/kg	–
